Laboratory results published in PubChem BioAssay (NCI).
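Compound exposure: 48 hours, 5 concentrations, 96-well plates. GI50: concentration for 50% inhibition of growth. At the TGI there is no net growth.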

Tests used:
Test in all cases: growth of human tumour cells (NCI), 48 h
[1] = test system: PC-3 prostate
[2] = test system: SK-MEL-2 melanoma
[3] = test system: SN12C renal
[4] = test system: OVCAR-8 ovarian
[5] = test system: MOLT-4 leukemia
[6] = test system: T-47D breast
[7] = test system: NCI-H23 lung
[8] = test system: UACC-62 melanoma
[9] = test system: LOX IMVI melanoma
[10] = test system: A498 renal
[11] = test system: CCRF-CEM leukemia
[12] = test system: NCI-H460 lung
[13] = test system: DU-145 prostate
[14] = test system: NCI-H226 lung
[15] = test system: SK-OV-3 ovarian
[16] = test system: HCT-15 colon
[17] = test system: HCT-116 colon
[18] = test system: NCI-H522 lung
[19] = test system: OVCAR-5 ovarian
[20] = test system: HL-60(TB) leukemia
[21] = test system: COLO 205 colon
[22] = test system: SNB-19 CNS
[23] = test system: UO-31 renal
[24] = test system: U251 CNS
[25] = test system: MDA-MB-231 breast
[26] = test system: ACHN renal
[27] = test system: MDA-N
[28] = test system: NCI/ADR-RES ovarian
[29] = test system: SR leukemia
[30] = test system: RPMI-8226 leukemia
[31] = test system: A549 NSCLC
[32] = test system: HT29 colon
[33] = test system: HS 578T breast
[34] = test system: HOP-62 NSCLC
[35] = test system: K-562 leukemia
[36] = test system: UACC-257 melanoma
[37] = test system: KM12 colon
[38] = test system: SF-295 CNS
[39] = test system: CAKI-1 renal
[40] = test system: MDA-MB-435
[41] = test system: SK-MEL-5 melanoma
[42] = test system: IGROV1 ovarian
[43] = test system: MCF7 breast
[44] = test system: SW-620 colon
[45] = test system: M14 melanoma
[46] = test system: OVCAR-3 ovarian
[47] = test system: 786-0 renal
[48] = test system: SF-268 CNS
[49] = test system: SF-539 CNS
[50] = test system: RXF 393 renal
[51] = test system: SNB-75 CNS
[52] = test system: BT-549 breast
[53] = test system: MALME-3M melanoma
[54] = test system: HCC-2998 colon
[55] = test system: TK-10 renal
[56] = test system: SK-MEL-28 melanoma
[57] = test system: OVCAR-4 ovarian
[58] = test system: HOP-92 NSCLC
[59] = test system: EKVX NSCLC

COc1ccc(C2CC(c3ccccc3)=Nc3c(-c4ccccc4)nnn32)cc1 (stereo not given)
TGI [1]: > 100 µM
TGI [2]: > 100 µM
TGI [3]: > 100 µM
TGI [4]: > 100 µM
TGI [5]: > 100 µM
TGI [6]: 59.6 µM
TGI [7]: > 100 µM
TGI [8]: > 100 µM
TGI [9]: > 100 µM
TGI [10]: > 100 µM
TGI [11]: > 100 µM
TGI [12]: > 100 µM
TGI [13]: > 100 µM
TGI [14]: > 100 µM
TGI [15]: > 100 µM
TGI [16]: > 100 µM
TGI [17]: > 100 µM
TGI [18]: 69.3 µM
TGI [19]: > 100 µM
TGI [20]: > 100 µM
TGI [21]: > 100 µM
TGI [22]: > 100 µM
TGI [23]: > 100 µM
TGI [24]: > 100 µM
TGI [25]: > 100 µM
TGI [26]: > 100 µM
TGI [27]: > 100 µM
TGI [28]: > 100 µM
TGI [29]: > 100 µM
TGI [30]: 82.6 µM
TGI [31]: > 100 µM
TGI [32]: > 100 µM
TGI [33]: > 100 µM
TGI [34]: > 100 µM
TGI [35]: > 100 µM
TGI [36]: > 100 µM
TGI [37]: > 100 µM
TGI [38]: > 100 µM
TGI [39]: > 100 µM
TGI [40]: > 100 µM
TGI [41]: > 100 µM
TGI [42]: > 100 µM
TGI [43]: > 100 µM
TGI [44]: > 100 µM
TGI [45]: > 100 µM
TGI [46]: > 100 µM
TGI [47]: > 100 µM
TGI [48]: > 100 µM
TGI [49]: > 100 µM

CCC(CO)Nc1nc(NCc2ccccc2O)c2ncn(C(C)C)c2n1 (stereo not given)
GI50 [1]: 5.67 µM
TGI [1]: 30.8 µM
GI50 [2]: 1.79 µM
TGI [2]: 5.83 µM
GI50 [3]: 2.77 µM
TGI [3]: 37.5 µM
GI50 [50]: 3.29 µM
TGI [50]: > 100 µM
GI50 [4]: 4.21 µM
TGI [4]: > 100 µM
GI50 [5]: 2.91 µM
TGI [5]: 12.9 µM
GI50 [51]: 1.96 µM
TGI [51]: 6.82 µM
GI50 [6]: 5.07 µM
TGI [6]: 32.8 µM
GI50 [52]: 2.76 µM
TGI [52]: > 100 µM
GI50 [7]: 2.98 µM
TGI [7]: 15.7 µM
GI50 [8]: 2.3 µM
TGI [8]: 12.5 µM
GI50 [9]: 2.63 µM
TGI [9]: > 100 µM
GI50 [10]: 3.66 µM
TGI [10]: 18 µM
GI50 [11]: 2.21 µM
TGI [11]: 9.39 µM
GI50 [12]: 2.45 µM
TGI [12]: 11.8 µM
GI50 [13]: 4.46 µM
TGI [13]: > 100 µM
GI50 [14]: 8.95 µM
TGI [14]: 50.8 µM
GI50 [15]: 5.95 µM
TGI [15]: 41 µM
GI50 [16]: 2.25 µM
TGI [16]: > 100 µM
GI50 [17]: 2.65 µM
TGI [17]: > 100 µM
GI50 [18]: 1.8 µM
TGI [18]: 8.52 µM
GI50 [19]: 3.72 µM
TGI [19]: > 100 µM
GI50 [20]: 2.08 µM
TGI [20]: 4.58 µM
GI50 [53]: 40.1 µM
TGI [53]: > 100 µM
GI50 [21]: 1.95 µM
TGI [21]: 3.89 µM
GI50 [22]: 3.3 µM
TGI [22]: 76 µM
GI50 [23]: 0.0777 µM
TGI [23]: 4.27 µM
GI50 [24]: 4.75 µM
TGI [24]: > 100 µM
GI50 [25]: 4.22 µM
TGI [25]: 38 µM
GI50 [54]: 0.215 µM
TGI [54]: 6.98 µM
GI50 [26]: 1.96 µM
TGI [26]: > 100 µM
GI50 [28]: 6.63 µM
TGI [28]: 53.9 µM
GI50 [55]: 10.2 µM
TGI [55]: > 100 µM
GI50 [29]: 1.35 µM
TGI [29]: 4.1 µM
GI50 [30]: 4.41 µM
TGI [30]: 20.7 µM
GI50 [56]: 2.35 µM
TGI [56]: 12.8 µM
GI50 [31]: 4.03 µM
TGI [31]: > 100 µM
GI50 [32]: 3.67 µM
TGI [32]: 60.1 µM
GI50 [33]: 3.1 µM
TGI [33]: 16.7 µM
GI50 [34]: 5.62 µM
TGI [34]: > 100 µM
GI50 [57]: 5.42 µM
TGI [57]: 33.6 µM
GI50 [35]: 0.628 µM
TGI [35]: 16.4 µM
GI50 [36]: 32.2 µM
TGI [36]: > 100 µM
GI50 [37]: 3.92 µM
TGI [37]: > 100 µM
GI50 [58]: 4.97 µM
TGI [58]: 26.2 µM
GI50 [38]: 2.95 µM
TGI [38]: 8.03 µM
GI50 [39]: 15.6 µM
TGI [39]: 63.4 µM
GI50 [40]: 2.64 µM
TGI [40]: 9.34 µM
GI50 [41]: 2.54 µM
TGI [41]: 11.9 µM
GI50 [42]: 1.81 µM
TGI [42]: 5.64 µM
GI50 [43]: 2.88 µM
TGI [43]: 8.73 µM
GI50 [59]: 15.2 µM
TGI [59]: > 100 µM
GI50 [44]: 3.34 µM
TGI [44]: > 100 µM
GI50 [45]: 4.77 µM
TGI [45]: 18.8 µM
GI50 [46]: 3.1 µM
TGI [46]: 19.8 µM
GI50 [47]: 4.46 µM
TGI [47]: > 100 µM
GI50 [48]: 2.55 µM
TGI [48]: 13 µM
GI50 [49]: 3.72 µM
TGI [49]: 28.4 µM
